Data reported in publication PMC9138090, “Study on the Neuroprotective, Radical-Scavenging and MAO-B Inhibiting Properties of New Benzimidazole Arylhydrazones as Potential Multi-Target Drugs for the Treatment of Parkinson’s Disease” (Antioxidants, 2022).
Counter-ions that a name gives are not always drawn.

Legend:
[1] = MTT cytotoxicity on SH-SY5Y cells; format: cell-based, human; settings: human, SH-SY5Y neuroblastoma cells, MTT test, 24 h incubation; read-out: IC50, in vitro cytotoxicity on SH-SY5Y cells
Method: Human neuroblastoma cell line SH-SY5Y was obtained from the European Collection of Cell Cultures (ECACC, Salisbury, UK). The cells were maintained in 75 cm^2 flasks at 37 °C in a humidified atmosphere with 5% CO2 and cultured in RPMI 1640 medium, supplemented with 10% fetal bovine serum and 2 mM L-glutamine.
MTT (Sigma-Aldrich Chemie GmbH, Schnelldorf, Germany) assay is based on interaction between tetrazolium dye 3-(4,5-dimethylthiazol-2-yl)-2,5-diphenyltetrazolium bromide and succinic dehydrogenase in the living cells’ mitochondria. In this reaction, the formed purple formazan crystals indicate the presence of viable cells. SH-SY5Y cells were seeded in 96-well microplates at a density 2.5 × 10^4 cells/well and allowed to attach to the well surface at 37 °C in a humidified atmosphere with 5% CO2 (24 h). Different concentrations of compounds ([…]) were added to cells and incubated for 24 h. For each concentration, a set of at least 8 wells were used. After the treatment, the solution in each well was substituted with MTT (3-(4,5-dimethylthiazol-2-yl)-2,5-diphenyltetrazolium bromide) solution (0.5 mg/mL in culture medium). The microplates were further incubated for 3 h at 37 °C and the obtained formazan crystals were dissolved by 100 µL/well of DMSO. The absorbance was measured in a multiplate reader Synergy 2 (BioTek Instruments, Inc, Highland Park, Winooski, VT, USA) at 570 nm (690 nm for background absorbance).
An important step in the development of new pharmacologically active compounds is the establishment of their safety profile. An in vitro toxicity evaluation was carried out on the neuroblastoma cell line SH-SY5Y, which is a well-established model in neuroscience. The neuroblastoma SH-SY5Y are human derived cells with relatively homogeneous neuroblast-like structure. The cells express a dopamine-β-hydroxylase and tyrosine hydroxylase enzyme activity, specific types of human proteins and protein isoforms. The possible neurotoxic effects of the potential drug candidates were measured by cell viability assay (MTT-test). The IC50 values were used as a robust parameter for comparison. The test compounds were dissolved in DMSO and serially diluted in cell culture medium to achieve final concentrations ranging from 1 to 500 µM; the culture medium containing DMSO in the corresponding concentration was used as untreated controls. A concentration dependent effect on cell viability was observed after 24 h incubation.

SH-SY5Y cells = experiment: H2O2-induced oxidative stress model in SH-SY5Y cells; format: cell-based, human; settings: 90 min pre-incubation, H2O2 1 mM 15 min
Method: SH-SY5Y cells were seeded in 96-well plates at a density of 3.5 × 10^4/well and allowed to attach at the wells’ bottom overnight. […] Afterwards, the SH-SY5Y cells were washed with phosphate-buffered saline (PBS) to remove the extracellular amount of the test compounds. […] Then, the contents of all wells were changed with culture medium. After 24 h, the amount of attached viable cells was evaluated by MTT assay. […] Rasagiline and melatonin (Sigma-Aldrich Chemie GmbH) were used as reference compounds because of their well-established neuroprotective activity. […] The toxic mechanisms of hydrogen peroxide include the generation of reactive hydroxyl radicals and formation of products which could damage cellular lipids, proteins and DNA. […] For comparison, the effects of two compounds with well established antioxidant activity—rasagiline and melatonin—were also evaluated.

rat brain synaptosomes [2] = experiment: 6-OHDA-induced neurotoxicity, synaptosomal viability; format: cell-based; settings: for increase of synaptosomal viability vs. 6-OHDA treatment: 10 µM pretreatment, 6-OHDA 1 h
Method: (§1) Synaptosomes were prepared from brains of adult male Wistar rats. The brains were homogenized in 10 volume of cold buffer 1, containing 5 mM HEPES and 0.32 M sucrose (pH = 7.4). The brain homogenate was centrifuged twice at 1000× g for 5 min at 4 °C. The supernatant was collected and centrifuged 3 times at 10,000× g for 20 min at 4 °C. The pellet was re-suspended in ice-cold buffer 1. The synaptosomes were isolated by using Percoll reagent to prepare the gradient. Synaptosomes were re-suspended and incubated in buffer 2, containing 290 mM NaCl, 0.95 mM MgCl2 × 6H2O, 10 mM KCl, 2.4 mM CaCl2 × H2O, 2.1 mM NaH2PO4, 44 mM HEPES, and 13 mM D-glucose. Incubations were performed in a 5% CO2 + 95% O2 atmosphere. The content of synaptosomal protein was determined according to the method of Lowry et al. using bovine serum albumin as a standard.
Synaptosomal viability was measured by (3-(4,5)-dimethylthiazol-2-yl)-2,5-diphenyl tetrazolium bromide)-test, described by Mungarro-Menchaca et al. The synaptosomes were incubated with the compounds and then treated with (3-(4,5)-dimethylthiazol-2-yl)-2,5-diphenyl tetrazolium bromide) solution (0.5 mg/mL) for 1 h at 37 °C. After incubation they were centrifuged at 15,000× g for 1 min. The formed formazan crystals were dissolved in DMSO (Dimethyl sulfoxide). The extinction was measured spectrophotometrically at λ = 580 nm.
(§2) The metabolism and oxidation of dopamine cause reactive oxygen radicals and reactive quinones to be produced, which could lead to neurotoxicity and neurodegeneration. The synaptosomes were incubated with the compounds (10 µM) for 30 min and then 6-hydroxydopamnine (150 mmol/L) was used to induce neurotoxicity. […] After 1 h, they were centrifuged on a microcentrifuge for 1 min at 15,000 rpm. The precipitates were gently mixed with buffer B and glucose and centrifuged for a second time at 15,000 rpm for 1 min. After the second wash, buffer B and glucose were added to the precipitates.
(§3) In the presented experiments, an in vitro assessment of the possible antioxidant and neuroprotective effects of the newly synthetized compounds was performed in a model of 6-OHDA induced toxicity in rat brain synaptosomes. 6-OHDA is a neurotoxicant that structurally resembles dopamine and can be used in different in vivo and in vitro models for neurotoxicity. This model resembles the histological, biochemical, and physiological characteristics of neurodegenerative diseases such as Parkinson’s and Alzheimer’s disease. […] However, their uptake into brain synaptosomes is similar among primates and rodents and they are suitable in vitro models for PD. The main mechanism of 6-OHDA toxicity includes induction of oxidative stress. It undergoes auto-oxidation or metabolic degradation to p-quinone and produces hydrogen peroxide, superoxide, and hydroxyl radicals. The process causes lipid peroxidation, protein oxidation, and DNA oxidation and finally results in oxidative stress and mitochondrial dysfunction. Rat brain synaptosomes were pretreated with compounds 3e, 3h, 3i, 3m, melatonin, and rasagiline (10 μM); after that, the samples were subjected to 6-OHDA (150 mmol/L, 1 h). The protective effects were evaluated by measurement of synaptosomal viability (MTT-test) and GSH levels (Figure 3).

rat brain synaptosomes [3] = experiment: 6-OHDA-induced neurotoxicity, GSH level; format: cell-based; settings: for restoration of GSH level vs. 6-OHDA treatment: 10 µM pretreatment, 6-OHDA 150 mmol/L 1 h
Method: as §1, §2, §3

[4] = Fe(II)-induced oxidative damage of lecithin (TBA-RS); settings: 90 µmol/L, lecithin 1 mg/mL, FeCl2 0.1 mmol/L
Method: The classical method of determining the TBA-reactive substances at 532 nm as described by Asakawa and Matsushita has been used. Two groups of measurement compositions named controls and samples were prepared in phosphate buffer (K2HPO4/KH2PO4, pH 7.4) for each of the used substrates. Both of them contained equivalent concentrations of lecithin (1 mg/mL) or 2-deoxyribose (0.5 mmol/L) and FeCl2 (0.1 mmol/L). In the controls, the tested hydrazones have been omitted and in the samples the effect of the newly designed compounds at the concentrations indicated below the figures has been determined. The obtained samples were incubated at 37 °C for 30 min. The reaction was stopped, and after adding 0.5 mL 2.8% trichloroacetic acid and 0.5 mL of thiobarbituric acid, the samples were heated in boiling water for 20 min. The lecithin containing samples were centrifuged at 3000 rpm for 20 min and the supernatant was aspired out. The results have been presented as a percentage of the control sample, treated only with ferrous iron where we expected maximum oxidative damage under the described conditions.

Row | Structure (SMILES) | IC50 at 24 h [1] [µM] | cell viability protection vs. H2O2-treatment (SH-SY5Y cells; 1 µM) [%] | cell viability protection vs. H2O2-treatment (SH-SY5Y cells; 10 µM) [%] | cell viability protection vs. H2O2-treatment (SH-SY5Y cells; 50 µM) [%] | increase of synaptosomal viability vs. 6-OHDA treatment (rat brain synaptosomes [2]) [%] | restoration of GSH level vs. 6-OHDA treatment (rat brain synaptosomes [3]) [%] | sample/control absorbance ratio (% of the control), lecithin peroxidation [4] [%] | reduction of synaptosomal vitality compared to untreated controls (rat brain synaptosomes [2]; 6-OHDA, 1 h) [%] | reduction of GSH level compared to untreated controls (rat brain synaptosomes [3]; 6-OHDA 150 mmol/L, 1 h) [%]
1 | COc1ccc2[nH]cc(CCNC(C)=O)c2c1 [Melatonin] | > 500 | 20 | 29 | 52 | 68 | 70 | 75 |  | 
2 | C#CCN[C@@H]1CCc2ccccc21 [Rasagiline HCl, Rasagiline] | > 500 | 10 | 20 | 39 | 61 | 60 |  |  | 
3 | NCCc1cc(O)c(O)cc1O [6-OHDA, 6-hydroxydopamine, reference compound] |  |  |  |  |  |  |  | 56 | 50
